In US20260275280A1, “DIRECTED DIFFERENTIATION PROTOCOLS TO DERIVE BONE FIDE SPINAL SENSORY INTERNEURONS” (THE REGENTS OF THE UNIVERSITY OF CALIFORNIA, priority 2022, published 2026):
Entries after “also recorded” stand apart in the source; their conditions may differ.

Columns and labels:
[1] = tested on: CHIR-expanded EBs; experiment: Differentiation of CHIR-expanded EBs on Matrigel (IHC, RT-qPCR at day 10); format: cell-based, mouse; conditions: DAPT added
Method: Embryoid body (EB) differentiation: To induce differentiation, EBs were dissociated into smaller clumps by a 5-7-minute treatment with cold 0.25% Trypsin (Gibco), followed by trituration. Trypsin was neutralized with 1:1 addition of Trypsin inhibitor (Sigma-Aldrich) and cells were pelleted by centrifugation at 1000RPM. Cell pellets were resuspended in N2/B27 medium (without growth factors) and plated onto a Matrigel precoated plate. In our experience, the single cell suspension of 100-150 EBs provided enough cells to seed one 24-well plate. […] At the end of 10 days, multiple neural processes can be visualized by phase contrast microscopy and cultures were either fixed with 4% PFA for immunohistochemistry or lysed to extract RNA in RLT buffer (Qiagen). […] CHIR withdrawal), or DAPT, a pro-differentiation agent (Crawford and Roelink, 2007) (FIG. 7J). […] This strategy was successful at restoring almost all dI identities in cultures taken from EBs both at the earliest passage and at the latest passage assessed (passage 7;

[2] = tested on: Wnt/β-catenin signaling; experiment: Inhibition of Wnt/β-catenin signaling during dI differentiation (IHC and RT-qPCR at day 9); format: cell-based, mouse
Method: (§1) The mouse ESC line, MM13, was routinely maintained in ES cell media (DMEM+20% FBS) with 100u/ml of mouse leukocyte inducing factor (LIF). […] To prepare cells for the differentiation, ESC colonies were dissociated with 0.25% trypsin and plated on gelatin coated plates at 1:10 dilution to reduce MEF transfer. Cells cultured on gelatin coated plates and allowed to proliferate for 1-2 days. To initiate differentiation, cells were plated on 0.1% gelatin coated 24-well CellBIND dishes (Corning) at 20,000 cells/ml density in 0.5 ml/well N2/B27 medium that contains 10 ng/ml basic fibroblast growth factor (bFGF). The N2/B27 medium contains 1:1 portions of Advanced Dulbecco's modified Eagle Media (DMEM) F12 (Hyclone) and Neurobasal media (Thermo Fisher Scientific) supplemented with 0.5×N2, 1×B27 supplement (with Vitamin A), 2 mM L-glutamine, 0.1 mM 2-mercaptoethanol (ME), and 1% BSA. On day 1, small colonies of cells can be observed attached to the bottom of the wells. On day 2, cells were supplemented with 10 ng/ml bFGF and 5 μM CHIR99021 for 24 hours to induce a neuromesodermal identity (Gouti et al., 2014). On day 3, media was changed as follows: for protocol 1, cells were exposed to 100 nM RA for 48 hrs. For protocol 2, 10 ng/ml human recombinant BMP4 (Thermo Fisher Scientific) was added concomitantly with 100 nM RA (RA+BMP4) for 48 hrs. For protocol 3, cells were exposed to 100 nM RA for 24 hrs, followed by a pulse of RA+BMP4 for another 24 hours. To induce terminal differentiation in all three conditions, the medium containing growth factors was replaced with basic N2/B27 medium at day 5, and cell allowed to differentiate to day 9. At the end of the differentiation, the cultures were fixed for immunohistochemical analysis or lysed to obtain RNA for RNA-Seq or quantitative reverse transcriptase PCR analysis.
Immunohistochemistry: For 2d differentiations, adherent cultures were first washed with 1×PBS and fixed with fresh cold 4% PFA for 10 minutes in the well. Following fixation, cultures were washed twice with 1×PBS to remove any remaining PFA. Cells were blocked with 1×PBS with 1% heat inactivated horse serum for 1 hour and primary antibodies are added in the blocking solution for an overnight incubation at 4C. Following washes, species appropriate secondary antibodies (Jackson Immuno Research Laboratories) were added in 1× PBT (PBS+0.1% […]) for 1 hr. The cultures were then washed with 1× PBT to remove traces of secondary antibodies and counterstained with DAPI to stain nuclei. Plates were then imaged on Zeiss LSM800 inverted confocal microscope at 10× magnification.
(§2) Quantitative (a) RT-PCR analysis: RNA was isolated with RNeasy Mini Kit (Qiagen, cat no. 74104), and converted to cDNA using Superscript IV First Strand Synthesis kit (Thermo Fisher Scientific). qRT-PCR was performed using SYBR Green PCR Master Mix (Applied Biosystems) on Roche 480 Lightcycler (Roche). The relative fold expression was calculated using 2-AACt method of comparing the expression of the target gene with that of the housekeeping gene glyceraldehyde 3-phosphate dehydrogenase (Gapdh). All experiments were repeated at least 2-3 times (technical replicates) from at least two independent differentiations (biological replicates), and data is represented as mean±SEM.
To assess the role of canonical Wnt signaling in dI fate specification, we added endo-IWR1 (IWR1e), a small molecule inhibitor which blocks p-catenin function (Chen et al., 2009) to dPs from day 4-6 (FIG. 5A). By day 9, the RA+BMP4 condition robustly induces dlis-dI3s (FIG. 5F-51, 5N-5P).

[3] = tested on: hESCs; conditions: added to the cell dissociation media (Watanabe et al., 2007, Pettinato et al., 2015); cited from earlier work
[4] = tested on: mESCs; experiment: NMP induction from mESCs with bFGF and CHIR (Sox2/T expression); format: cell-based, mouse; conditions: day 2 (48 hr bFGF alone) / day 3 (further 24 hr bFGF and CHIR)
Method: as §1, with “For protocol 2, 10 ng/ml human recombinant BMP4 (Thermo Fisher Scientific) was added concomitantly with 100 nM RA (RA+BMP4) for 48 hrs. For protocol 3, cells were exposed to 100 nM RA for 24 hrs, followed by a pulse of RA+BMP4 for another 24 hours. To induce terminal differentiation in all three conditions, the medium containing growth factors was replaced with basic N2/B27 medium at day 5, and cell allowed to differentiate to day 9.” left out, “analysis. […]” for “analysis.”

[5] = tested on: Wnt-signaling genes; experiment: RT-qPCR of selected Wnt genes at day 5 (RA±BMP4, Noggin); format: cell-based, mouse
Method: as §2
Additionally, we also found enriched GO terms related to Wnt signaling across three functional categories (FIG. 4C). […] (FIGS. 4D, 4E, 12B). Selected Wnt-signaling genes were further assessed in a qPCR analysis of day 5 NMPs to validate whether they are BMP4-responsive.

[6] = tested on: mESCs-derived NMPs / NPCs; experiment: Bulk RNA-Seq differential expression and qRT-PCR after RA or RA+BMP4 treatment; format: cell-based, mouse
Method: Bulk-RNA sequencing and data processing: Total cell lysate was obtained in buffer RLT (Qiagen) at different time points from three independent differentiations (biological replicates) conducted parallelly. RNA extraction was performed using RNeasy mini kit (Qiagen) and the quality was determined using Agilent Technologies 2100 Bioanalyzer and only samples with a RIN score >8.0 were sequenced. Stranded libraries were constructed using Universal plus mRNA sequencing kit (NuGEN) and sequenced onto 2 lanes of NovaseqS1 to generate 30 million reads/sample. Obtained reads were aligned to the latest mouse reference genome (mm10) using the STAR spliced read aligner. Pearson correlation and principal component analysis (PCA) was performed to determine the similarities among the samples and replicates. Differentially expressed genes were identified using DESeq and EdgeR package on R platform. The candidate genes were selected using cutoff false discovery rate (FDR <0.05) and log fold change (>2). Differentially expressed gene lists were further subjected to Enrichr, Metascape (Zhou et al., 2019) and DAVID functional annotation tools to identify enriched gene ontology (GO) categories.
as §2
We took advantage of the directed differentiation protocols to investigate the unresolved mechanisms by which RA and BMP direct dI fate specification. To further validate the use of a stem cell model, we first assessed the genetic basis of the fate decisions mediated by RA signaling. During the 24 hr pulse of RA at day 3, Pax3 levels gradually increase, while T expression concomitantly declines (FIG. 12A). […] To identify the transcriptional changes occurring during this first commitment step, we performed bulk RNA-Seq at day 3 (NMP state), day 3.25 (early transcriptional response to RA) and day 4 (dP state1) (FIG. 11B).
We hypothesized that the addition of BMP4 to NPCs in dP state1, directs them to a more dorsal dP state, i.e. dP state2 (FIG. 11A). To define the transcriptional changes occurring after BMP4 addition, we performed bulk RNA-Seq at day 4 (dP state1), day 4.25 (early transcriptional response to RA+BMP4) and at day 5 (dP state2) (FIG. 4A). […] 78 genes, out of 411, were common between both time points (FIGS. 4B, 13B). Focusing on these common genes, we identified enriched functional processes using GO analyses. The GO terms included the BMP signaling pathway (FIG. 4C, Table 3), confirming that the analysis identified BMP responsive genes.

[7] = inhibitor added to RA+BMP4 (protocol 3) from day 4, 48 hours, day 9

C[C@H](NC(=O)Cc1cc(F)cc(F)c1)C(=O)N[C@H](C(=O)OC(C)(C)C)c1ccccc1 [DAPT]
Tuj1+ neurites ([1]; day 10, IHC): increased sprouting of Tuj^+ neurites; also recorded: modest effect increasing the number of Tuj1+neurites | NeuN and Tubb3 expression compared to DMSO ([1]; day 10, RT-qPCR): did not significantly augment NeuN and Tubb3 expression

Oc1nc(-c2ccc(C(F)(F)F)cc2)nc2c1CSCC2 [XAV939]
dI1 and dI2 differentiation [2, 7]: most strongly suppresses the differentiation of the BMP4-dependent dI1/dI2s | dI3 differentiation [2, 7]: more modest effect on dI3s | dI4, dI5, dI6 fates [2, 7]: increase in the expression of dI4-dI6 specific genes | dP markers Pax3, Pax7, Olig3 ([2]; inhibitor added to RA+BMP4 condition): prevents both the suppression of Pax7+dPs and induction of Olig3+dPs

C[C@@H](N)[C@H]1CC[C@H](C(=O)Nc2ccncc2)CC1 [Y-27632]
apoptosis upon dissociation and EB formation [3]: significantly inhibit apoptosis and enhance the EB formation

bFGF: human basic fibroblast growth factor
Expression of Sox2 and T [4]: upregulate Sox2 but not T

B1: BMP4: human recombinant bone morphogenetic protein 4 (protein, UniProt P12644 293-408, looked up)
Bone morphogenetic protein 4: SPKHHSQRARKKNKNCRRHSLYVDFSDVGWNDWIVAPPGYQAFYCHGDCPFPLADHLNSTNHAIVQTLVNSVNSSIPKACCVPTELSAISMLYLDEYDKVVLKNYQEMVVEGCGCR
expression of selected Wnt-signaling genes ([5]; day 5, addition of BMP4 compared to RA alone): expression of all genes tested significantly increased | upregulated genes common between both time points ([6]; 6 hrs and 24 hrs of BMP4+RA treatment): 78 genes | genes upregulated ([6]; 6 hrs of BMP4 addition (day 4.25) vs day 4): 106 genes | genes upregulated ([6]; 24 hrs of BMP4 exposure (day 5) vs day 4): 305 genes

B2: Noggin: a BMP signaling inhibitor (protein, UniProt Q13253 28-232, looked up)
Noggin: QHYLHIRPAPSDNLPLVDLIEHPDPIFDPKEKDLNETLLRSLLGGHYDPGFMATSPPEDRPGGGGGAAGGAEDLAELDQLLRQRPSGAMPSEIKGLEFSEGLAQGKKQRLSKKLRRKLQMWLWSQTFCPVLYAWNDLGSRFWPRYVKVGSCFSKRSCSVPEGMVCKPSKSVHLTVLRWRCQRRGGQRCGWIPIQYPIISECKCSC
upregulation of Wnt expression ([5]; Noggin concomitantly added with BMP4 on day 4): upregulation of Wnt expression was suppressed
